The supplement of paper PMC4862054

Assays:
Assay in all cases: normalised viability (% of control), CellTiter-Blue; higher = more viable cells (about 100 = DMSO control)
Conditions in all cases: incubation time: 72 h
CAL-51 [1] = test system: CAL-51
Method: (§1)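 DSRT, CellTiter-Blue viability, 72 h incubation. Signal is normalised to DMSO and benzethonium chloride controls. Value is the normalised response at dose 8.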

DU-4475 [2] = test system: DU-4475
Method: as §1

CAL-148 [3] = test system: CAL-148
Method: as §1

HDQ-P1 [4] = test system: HDQ-P1
Method: as §1

MDA-MB-453 [5] = test system: MDA-MB-453
Method: as §1

CAL-85-1 [6] = test system: CAL-85-1
Method: as §1

CAL-51 [7] = test system: CAL-51; remark: listed apart in the source
Method: (§2)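 DSRT, CellTiter-Blue viability, 72 h incubation. Signal is normalised to DMSO and benzethonium chloride controls. Value is the normalised response at dose 6.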

DU-4475 [8] = test system: DU-4475; remark: listed apart in the source
Method: as §2

CAL-148 [9] = test system: CAL-148; remark: listed apart in the source
Method: as §2

HDQ-P1 [10] = test system: HDQ-P1; remark: listed apart in the source
Method: as §2

MDA-MB-453 [11] = test system: MDA-MB-453; remark: listed apart in the source
Method: as §2

CAL-85-1 [12] = test system: CAL-85-1; remark: listed apart in the source
Method: as §2

CAL-51 [13] = test system: CAL-51; remark: listed apart in the source
Method: (§3)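 DSRT, CellTiter-Blue viability, 72 h incubation. Signal is normalised to DMSO and benzethonium chloride controls. Value is the normalised response at dose 7.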

DU-4475 [14] = test system: DU-4475; remark: listed apart in the source
Method: as §3

CAL-148 [15] = test system: CAL-148; remark: listed apart in the source
Method: as §3

HDQ-P1 [16] = test system: HDQ-P1; remark: listed apart in the source
Method: as §3

MDA-MB-453 [17] = test system: MDA-MB-453; remark: listed apart in the source
Method: as §3

CAL-85-1 [18] = test system: CAL-85-1; remark: listed apart in the source
Method: as §3

SMILES: CN1CCC(COc2cnc(-c3cccc(Cn4nc(-c5cccc(C#N)c5)ccc4=O)c3)nc2)CC1 (3000 nM)
- normalised viability (CAL-51 [1]): 84.4%
- normalised viability (DU-4475 [2]): 108%
- normalised viability (CAL-148 [3]): 79.8%
- normalised viability (HDQ-P1 [4]): 85.4%
- normalised viability (MDA-MB-453 [5]): 63.8%
- normalised viability (CAL-85-1 [6]): 87.3%

SMILES: CN(C)C/C=C/C(=O)Nc1cc2c(Nc3ccc(F)c(Cl)c3)ncnc2cc1O[C@H]1CCOC1 [Afatinib] (3000 nM)
- normalised viability (CAL-51 [1]): 86.2%
- normalised viability (DU-4475 [2]): 92.7%
- normalised viability (CAL-148 [3]): 58.2%
- normalised viability (HDQ-P1 [4]): 19.4%
- normalised viability (MDA-MB-453 [5]): 30%
- normalised viability (CAL-85-1 [6]): 39.6%

SMILES: CN1CC[C@H](c2c(O)cc(O)c3c(=O)cc(-c4ccccc4Cl)oc23)[C@H](O)C1 [Alvocidib] (3000 nM)
- normalised viability (CAL-51 [1]): 4.88%
- normalised viability (DU-4475 [2]): 1.28%
- normalised viability (CAL-148 [3]): 14.4%
- normalised viability (HDQ-P1 [4]): 13.7%
- normalised viability (MDA-MB-453 [5]): 7.79%
- normalised viability (CAL-85-1 [6]): 3.02%

SMILES: Nc1nc(Cl)nc2c1ncn2[C@H]1C[C@H](O)[C@@H](CO)O1 [Cladribine] (300 nM)
- normalised viability (CAL-51 [1]): 104%
- normalised viability (DU-4475 [2]): 102%
- normalised viability (CAL-148 [3]): 103%
- normalised viability (HDQ-P1 [4]): 96.3%
- normalised viability (MDA-MB-453 [5]): 96.9%
- normalised viability (CAL-85-1 [6]): 92.9%

SMILES: Nc1ccn([C@@H]2O[C@H](CO)[C@@H](O)[C@@H]2O)c(=O)n1 [Cytarabine] (3000 nM)
- normalised viability (CAL-51 [1]): 16.4%
- normalised viability (DU-4475 [2]): 26.1%
- normalised viability (CAL-148 [3]): 34.8%
- normalised viability (HDQ-P1 [4]): 86.7%
- normalised viability (MDA-MB-453 [5]): 62.5%
- normalised viability (CAL-85-1 [6]): 70.1%

SMILES: COc1cc(Nc2ncc3c(n2)-c2ccc(Cl)cc2C(c2c(F)cccc2OC)=NC3)ccc1C(=O)O [MLN8237] (300 nM)
- normalised viability (CAL-51 [7]): 35.9%
- normalised viability (DU-4475 [8]): 9.79%
- normalised viability (CAL-148 [9]): 49.2%
- normalised viability (HDQ-P1 [10]): 44.1%
- normalised viability (MDA-MB-453 [11]): 64.7%
- normalised viability (CAL-85-1 [12]): 44%

SMILES: COc1cc(Nc2ncc3c(n2)-c2ccc(Cl)cc2C(c2c(F)cccc2OC)=NC3)ccc1C(=O)O [MLN8237] (1000 nM)
- normalised viability (CAL-51 [13]): 27.2%
- normalised viability (DU-4475 [14]): 16.5%
- normalised viability (CAL-148 [15]): 36.9%
- normalised viability (HDQ-P1 [16]): 54.2%
- normalised viability (MDA-MB-453 [17]): 68.9%
- normalised viability (CAL-85-1 [18]): 69.1%

SMILES: S=c1[nH]cnc2nc[nH]c12 [Mercaptopurine] (300 nM)
- normalised viability (CAL-51 [7]): 97.8%
- normalised viability (DU-4475 [8]): 112%
- normalised viability (CAL-148 [9]): 102%
- normalised viability (HDQ-P1 [10]): 76.6%
- normalised viability (MDA-MB-453 [11]): 110%
- normalised viability (CAL-85-1 [12]): 83.8%

SMILES: Clc1ccc(C(c2ccccc2Cl)C(Cl)Cl)cc1 (stereo not drawn) [Mitotane] (300 nM)
- normalised viability (CAL-51 [7]): 109%
- normalised viability (DU-4475 [8]): 95%
- normalised viability (CAL-148 [9]): 101%
- normalised viability (HDQ-P1 [10]): 92.5%
- normalised viability (MDA-MB-453 [11]): 110%
- normalised viability (CAL-85-1 [12]): 94.5%

SMILES: COc1cccc2cc(-c3nc([C@H]4CC[C@H](C(=O)O)CC4)n4ncnc(N)c34)[nH]c12 [OSI-027] (300 nM)
- normalised viability (CAL-51 [7]): 74.3%
- normalised viability (DU-4475 [8]): 82.5%
- normalised viability (CAL-148 [9]): 76.1%
- normalised viability (HDQ-P1 [10]): 37.9%
- normalised viability (MDA-MB-453 [11]): 66.1%
- normalised viability (CAL-85-1 [12]): 75.5%

SMILES: OC[C@H]1O[C@@H](n2cnc3c2N=CNC[C@H]3O)C[C@@H]1O [Pentostatin] (300 nM)
- normalised viability (CAL-51 [7]): 94.3%
- normalised viability (DU-4475 [8]): 93.1%
- normalised viability (CAL-148 [9]): 111%
- normalised viability (HDQ-P1 [10]): 82.3%
- normalised viability (MDA-MB-453 [11]): 108%
- normalised viability (CAL-85-1 [12]): 97.8%

SMILES: N#CC[C@H](C1CCCC1)n1cc(-c2ncnc3[nH]ccc23)cn1 [Ruxolitinib] (300 nM)
- normalised viability (CAL-51 [7]): 86.7%
- normalised viability (DU-4475 [8]): 114%
- normalised viability (CAL-148 [9]): 95.1%
- normalised viability (HDQ-P1 [10]): 73.3%
- normalised viability (MDA-MB-453 [11]): 78.4%
- normalised viability (CAL-85-1 [12]): 92%

SMILES: C=CC[C@@H]1/C=C(\C)C[C@H](C)C[C@H](OC)[C@H]2O[C@@](O)(C(=O)C(=O)N3CCCC[C@H]3C(=O)O[C@H](/C(C)=C/[C@@H]3CC[C@@H](O)[C@H](OC)C3)[C@H](C)[C@@H](O)CC1=O)[C@H](C)C[C@@H]2OC [Tacrolimus] (300 nM)
- normalised viability (CAL-51 [7]): 103%
- normalised viability (DU-4475 [8]): 99.6%
- normalised viability (CAL-148 [9]): 106%
- normalised viability (HDQ-P1 [10]): 119%
- normalised viability (MDA-MB-453 [11]): 111%
- normalised viability (CAL-85-1 [12]): 101%

SMILES: C=CCNC1=C2C[C@@H](C)C[C@H](OC)[C@H](O)[C@@H](C)/C=C(\C)[C@H](OC(N)=O)[C@@H](OC)/C=C\C=C(/C)C(=O)NC(=CC1=O)C2=O [Tanespimycin] (300 nM)
- normalised viability (CAL-51 [7]): 48.2%
- normalised viability (DU-4475 [8]): 1.35%
- normalised viability (CAL-148 [9]): 19.7%
- normalised viability (HDQ-P1 [10]): 28.8%
- normalised viability (MDA-MB-453 [11]): 8.64%
- normalised viability (CAL-85-1 [12]): 47.2%

SMILES: CO[C@H]1C[C@@H]2CC[C@@H](C)[C@@](O)(O2)C(=O)C(=O)N2CCCC[C@H]2C(=O)O[C@H]([C@H](C)C[C@@H]2CC[C@@H](OC(=O)C(C)(CO)CO)[C@H](OC)C2)CC(=O)[C@H](C)/C=C(\C)[C@@H](O)[C@@H](OC)C(=O)[C@H](C)C[C@H](C)/C=C/C=C/C=C/1C [Temsirolimus] (30 nM)
- normalised viability (CAL-51 [7]): 41.8%
- normalised viability (DU-4475 [8]): 54.4%
- normalised viability (CAL-148 [9]): 40.4%
- normalised viability (HDQ-P1 [10]): 58.3%
- normalised viability (MDA-MB-453 [11]): 30.1%
- normalised viability (CAL-85-1 [12]): 56.3%

SMILES: C[C@]1(c2nc3c(C(N)=O)cccc3[nH]2)CCCN1 [Veliparib] (300 nM)
- normalised viability (CAL-51 [7]): 105%
- normalised viability (DU-4475 [8]): 89.9%
- normalised viability (CAL-148 [9]): 100%
- normalised viability (HDQ-P1 [10]): 65.5%
- normalised viability (MDA-MB-453 [11]): 101%
- normalised viability (CAL-85-1 [12]): 85.2%

SMILES: CC[C@]1(O)C[C@@H]2CN(CCc3c([nH]c4ccccc34)[C@@](C(=O)OC)(c3cc4c(cc3OC)N(C)[C@H]3[C@@](O)(C(=O)OC)[C@H](OC(C)=O)[C@]5(CC)C=CCN6CC[C@]43[C@@H]65)C2)C1 [Vinblastine] (30 nM)
- normalised viability (CAL-51 [7]): 49.7%
- normalised viability (DU-4475 [8]): 67.4%
- normalised viability (CAL-148 [9]): 17.2%
- normalised viability (HDQ-P1 [10]): 31.5%
- normalised viability (MDA-MB-453 [11]): 29.1%
- normalised viability (CAL-85-1 [12]): 36.2%

SMILES: CS(=O)(=O)c1ccc(C(=O)Nc2ccc(Cl)c(-c3ccccn3)c2)c(Cl)c1 [Vismodegib] (300 nM)
- normalised viability (CAL-51 [7]): 106%
- normalised viability (DU-4475 [8]): 102%
- normalised viability (CAL-148 [9]): 81.3%
- normalised viability (HDQ-P1 [10]): 44%
- normalised viability (MDA-MB-453 [11]): 102%
- normalised viability (CAL-85-1 [12]): 95.7%
